Source: PubChem BioAssay AID1963868 (Molecular Pharmacology Branch, DTP, NCI, 2024)
pIC50: −log10 of the molar value.

System: KRAS PDC tumor spheroids (HUVEC+MSC), viability
Assay: Anticancer human tumor 254851-301-R-J1-PDC patient-derived colon carcinoma cell line growth inhibition [KRAS2]
Conditions: for pIC50: curve of first compound; for viability, T/C: stronger effect = lower value
From the text: Multicellular complex tumor spheroid response to RAS pathway inhibitors in combination with a targeted agents in patient-derived cell lines with oncogenic KRAS variants from multiple cancer types
A high-throughput screen of multi-cell type tumor spheroids was designed to identify active combinations of targeted small molecules and KRAS pathway inhibitors. Complex spheroids include a stromal component modeled by human endothelial cells (HUVEC) and fibroblasts modeled by human mesenchymal stem cells (MSCs). The concentration ranges selected for each drug and investigational agent were based upon clinically achievable concentrations if the clinical Cmax of the agent was known.
Compounds. The drugs and investigational agents: BI-3406 (NSC825286), BAY-293 (NSC824723), batoprotafib (TNO155; NSC825523), sotorasib (AMG 510; NSC818433), MRTX1257 (NSC819558), elimusertib (BAY 1895344; NSC800525), molibresib (GSK525762; NSC774829), temuterkib (LY3214996; NSC803410), venetoclax (NSC766270), alisertib (NSC759677), olaparib (NSC753686), talazoparib (NSC767125), erdafitinib (NSC781556), ipatasertib (NSC767898), cabozantinib (NSC761068), nintedanib (NSC756659), abemaciclib (NSC768073), docetaxel (NSC628503), trametinib (NSC758246), and sapanisertib (NSC764658) were obtained from the National Cancer Institute (NCI) Developmental Therapeutics Program Chemical Repository. The FDA-approved anticancer drug set is available from the Developmental Therapeutics Program. […] The stock solutions were prepared in dimethyl sulfoxide (DMSO, Sigma-Aldrich, St. Louis, MO, cat. D2650) at 800-fold the tested concentration and stored at -70 degrees C prior to their use. All drugs and investigational agents were tested over a range starting from a high concentration at or near the clinical Cmax and decreasing in half-log increments. If the clinical Cmax for an agent had not been determined, the highest concentration tested was 10 microM.
Cell Culture. All cells were maintained in an incubator at 37 degrees C and 5% CO2 with 95% humidity. The PDC lines were cultured according to standard operating procedures established by the NCI PDMR (https://pdmr.cancer.gov/sops/default.htm). Briefly, all PDCs were thawed and cultured in Matrigel-coated flasks prepared with a working solution of 1X Ham's F-12 nutrient mix, without supplementation (Invitrogen, Waltham, MA, cat. 11765054), 100 U/mL penicillin-streptomycin (Invitrogen, cat. 15140122), and 2.5% Matrigel (Corning Inc., Corning, NY, cat. 354248) for the first three passages. All PDCs were cultured in complete DMEM/F-12 media containing advanced DMEM/F-12 (Invitrogen, cat. 12634028), 4.9% defined fetal bovine serum, heat inactivated (HyClone Laboratories Inc., Logan, UT, cat. SH30070.03HI), 389 ng/mL hydrocortisone (Sigma-Aldrich, cat. H4001), 9.7 ng/mL human EGF recombinant protein (Invitrogen, cat. PHG0313), 23.4 microg/mL adenine (Sigma-Aldrich, cat. A2786), 97.3 U/mL penicillin-streptomycin (Invitrogen, cat. 15140122), 1.9 mM L-glutamine (Invitrogen, cat. 25030081), and 9.7 microM Y-27632 dihydrochloride (Tocris Bioscience, Bristol, United Kingdom, cat. 1254). The PDCs were cultured in complete DMEM/F12 media without 9.7 microM Y-27632 dihydrochloride for at least two passages prior to the screen. The established cell line HOP-62 was cultured in RPMI 1640 medium, HEPES (Invitrogen, cat. 22400105) with 10% defined fetal bovine serum (HyClone Laboratories Inc., cat. SH30070.03) and 2 mM L-glutamine (Invitrogen, cat. 25030081). The pooled donor HUVEC were cultured in endothelial cell growth medium 2 (PromoCell, Heidelberg, Germany, cat. C-22011) and the hMSC were cultured in mesenchymal stem cell growth medium 2 (PromoCell, cat. C-28009). For all experiments, HUVEC and hMSC were used at passages </=5, while the malignant cell lines were used at passages </=15. […]
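Further: spheroids exposed to compounds for seven days before readout.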
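Wherever viability, T/C is given: 100% = DMSO vehicle control luminescence of the spheroids.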

With `CN(C)C/C=C/C(=O)Nc1cc2c(Nc3ccc(F)c(Cl)c3)ncnc2cc1O[C@H]1CCOC1` + C=CC(=O)N1CCN(c2nc(=O)n(-c3c(C)ccnc3C(C)C)c3nc(-c4c(O)cccc4F)c(F)cc23)C(C)C1 the pIC50 (second compound 0.1 µM) was under 7.00, the pIC50 (second compound 0.316 µM) was under 7.00 and the pIC50 (second compound 1 µM) was under 7.00. The pIC50 (second compound 3.16 µM) was under 7.00, the pIC50 (second compound 10 µM) was under 7.00 and the viability, T/C (second compound 0.1 µM, first compound 0.000316 µM) was 110%. It also gave a viability, T/C (second compound 0.1 µM, first compound 0.001 µM) of 103%, a viability, T/C (second compound 0.1 µM, first compound 0.00316 µM) of 99.5% and a viability, T/C (second compound 0.1 µM, first compound 0.01 µM) of 93.8%. The viability, T/C (second compound 0.1 µM, first compound 0.0316 µM) was 97.2%, the viability, T/C (second compound 0.1 µM, first compound 0.1 µM) was 93% and the viability, T/C (second compound 0.316 µM, first compound 0.000316 µM) was 104%. It also gave a viability, T/C (second compound 0.316 µM, first compound 0.001 µM) of 102%, a viability, T/C (second compound 0.316 µM, first compound 0.00316 µM) of 96.5% and a viability, T/C (second compound 0.316 µM, first compound 0.01 µM) of 89.6%. For the same compound, the viability, T/C (second compound 0.316 µM, first compound 0.0316 µM) was 93.4%, the viability, T/C (second compound 0.316 µM, first compound 0.1 µM) was 75.2% and the viability, T/C (second compound 1 µM, first compound 0.000316 µM) was 99.5%. For the same compound, the viability, T/C (second compound 1 µM, first compound 0.001 µM) was 108%, the viability, T/C (second compound 1 µM, first compound 0.00316 µM) was 86.1% and the viability, T/C (second compound 1 µM, first compound 0.01 µM) was 87.2%. It also gave a viability, T/C (second compound 1 µM, first compound 0.0316 µM) of 83.6%, a viability, T/C (second compound 1 µM, first compound 0.1 µM) of 73.5% and a viability, T/C (second compound 3.16 µM, first compound 0.000316 µM) of 101%. The viability, T/C (second compound 3.16 µM, first compound 0.001 µM) was 98.7%, the viability, T/C (second compound 3.16 µM, first compound 0.00316 µM) was 87.1% and the viability, T/C (second compound 3.16 µM, first compound 0.01 µM) was 93.8%. The viability, T/C (second compound 3.16 µM, first compound 0.0316 µM) was 100%, the viability, T/C (second compound 3.16 µM, first compound 0.1 µM) was 82.5% and the viability, T/C (second compound 10 µM, first compound 0.000316 µM) was 109%. For the same compound, the viability, T/C (second compound 10 µM, first compound 0.001 µM) was 99.3%, the viability, T/C (second compound 10 µM, first compound 0.00316 µM) was 91.9% and the viability, T/C (second compound 10 µM, first compound 0.01 µM) was 94.6%. It also gave a viability, T/C (second compound 10 µM, first compound 0.0316 µM) of 95.6% and a viability, T/C (second compound 10 µM, first compound 0.1 µM) of 74.4%.
